According to patent US20250382631A1, “PROTAC-CID SYSTEMS FOR USE IN MULTIPLEX GENE REGULATION” (William Marsh Rice University, priority 2022, published 2025):
Where two headings read alike, the source gives them in different places.

Columns and labels:
[1] = PROTAC-CID inducible EYFP gene activation, flow cytometry; type: cell-based, human; details: Homo sapiens, HEK-293T, FIG. 13A
Protocol: (§1) Fluorescence assay using flow cytometry analysis. Cells were treated with 0.05% Trpsin EDTA (Thermo Fisher Scientific no. 25300054) or TrypLE (Thermo Fisher Scientific no. 12605028) after transfection and centrifuged at 3000 g for 5 min. Supernatant was removed and the cell pellet was resuspended with 200 μL phosphate buffered saline (PBS) without calcium and magnesium (Thermo Fisher Scientific no. 10010023). Cells were transferred into 12×75 mm flow tubes (Global Scientific no. 110410). Cells were analyzed by MA900 flow cytometry (SONY). 405 nm laser (FL6 filter) was used for testing the BFP channel. 488 nm (FL1 filter) was used for testing the EYFP and GFP channel. Automated alignment using Automatic Setup Beads kit (SONY no. LE-B3001) is performed before running samples. In FIGS. 3A, 3B, and 17, experiments were performed under 2% FSC, 17% BSC, 24% FL1. In FIG. 18, experiments were performed under 2% FSC, 17% BSC, 27% FL1. All the other experiments were performed under 2% FSC, 17% BSC, 24% FL1 and 27% FL6. Flow cytometry data was processed and analyzed by FlowJo 10. Events were first gated with forward scatter-Area (FSC-A) and side scatter-Area (SSC-A) to select viable cells and remove the debris and dead cells. Cells were further gated with FSC-A and FSC-Height (FSC-H) for selecting single cells. The mean intensity of the reporter fluorescent protein (BFP and EYFP) in viable and single cell populations were calculated by FlowJo 10 as the mean of FL6-A and FL1-A. When calculating the fold change of relative fluorescence units (RFU), the relative fluorescence units of EYFP was calculated by dividing the mean of fluorescence intensity of EYFP with the mean of BFP fluorescence intensity for normalization as the following formula: […]
(§2) Next, the mean of the normalized relative fluorescence units of induced group were divided by the value of control group for calculating the fold change as the following formula: […]
(§3) Transfection and microscopy. HEK293T cells (American Type Culture Collection, no. CRL-3216) were cultured with high-glucose Dulbecco's modified Eagle's medium (DMEM) (Thermo Fisher Scientific no. 10569044) with 10% fetal bovine serum (FBS) (Thermo Fisher Scientific no. 10437028) and 1×penicillin-streptomycin (Thermo Fisher Scientific no. 15140122) at 37° C. with 5% CO2. Except for the data in FIGS. 3C, 3E, and 3H, cells were plated into 96 well plate (Corning no. 3598) and transfected by Polyethyleneimine Max (PEI Max) (Polysciences no. 24765-1). 1.5 μL PEI Max (1 mg/mL, pH=7.1) and 100 μl DMEM were mixed with plasmids to be slowly dropped into the cell medium after 30 mins of incubation. Medium was changed 12 hours post-transfection. The inductive small molecules, including Rapamycin (STEM CELL technologies no. 73362), dTAG-13 (TOCRIS no. 6605/5), dTAG^V-1 (TOCRIS no. 6744-5), dBRD9 (TOCRIS no. 6606/5), dTRIM24 (TOCRIS no. 6607/5), MZ1 (TOCRIS no. 6154/5), AT1 (TOCRIS no. 6356/5), TL13-12 (TOCRIS no. 6744/5), TL13-112 (TOCRIS no. 6745/5), dTAG-7 (TOCRIS no. 69125), ZXH3-26 (TOCRIS no. 6713/5) and ABA (GoldBio no. A-050-100), dissolved in Dimethyl sulfoxide (DMSO) (Sigma, no. D8418) were added. For the microscopy observation, the images were taken by Microscopy EVOS (Life Technologies) and processed by ImageJ (Schneider et al., 2012). If not otherwise noted, 60 ng of each plasmid were used for each sample.
(§4) Step-by-step fluorescence protein activation assay protocol. Reagents: • 1. PEI Max (Polysciences no. 24765-1) • 2. DMEM, high glucose, GlutaMAX™ Supplement, pyruvate (Thermo Fisher Scientific no. 10569044) • 3. Penicillin-Streptomycin (10,000 U/mL) (Thermo Fisher Scientific no. 15140122) • 4. Fetal Bovine Serum 500ML (FBS) (Thermo Fisher Scientific no. 10437028) • 5. TrypLE™ Express Enzyme (1×), phenol red (Thermo Fisher Scientific no. 12605068) • 6. PBS pH=7.4 (Thermo Fisher Scientific no. 10010023) • 7. Sony sorting chip […] for MA900 (SONY no. LE-C3210) • 8. Automatic Setup Beads kit (SONY no. LE-B3001) • 9. […]

[2] = tested on: pUAS-1-driven EYFP expression in HEK293T cells transfected with GAL4- and VPR-fused PROTAC target protein / E3 ubiquitin ligase; test: as above; type: cell-based, human; details: for Bottom (best-fit value) / Span (best-fit value) / Top (best-fit value): Table 4 nonlinear regression of EYFP activation; for Bottom (best-fit value) / Span (best-fit value) / Top (best-fit value) / Hillslope (best-fit value) / logEC50 (best-fit value) / EC50: FIG. 13A
Protocol: as §1, §2, §3, §4

[3] = tested on: isABE system (FRB / FKBP3 fused split ABE8e), EYFP reporter in HEK293T cells; test: isABE split adenine base editor, EYFP stop-codon reporter dose response; type: cell-based; details: Homo sapiens, HEK-293T; different doses of Rapamycin, FIG. 5J
From the text: For rapid exploration of inducible ABE variants, the inventors first sought to develop a rapid fluorescence-based reporter system to quantify the ABE efficiency as reported before. The inventors selected target region in eyfp gene with NGG PAM where a CAG codon within the editing window was mutated to TAG stop codon. ABEs convert A to G or T to C, thus allowing the conversion of stop codon to CAG following gRNA binding to untemplated strand. Additionally, there is no other bystander A in the editing window that would cause complex editing to affect the fluorescence expression. The inventors observed a high restoration of the EYFP fluorescence when transfecting HEK293T cells with plasmids encoding the ABE8e fused SpCas9 and guide RNA (FIGS. 5A and 5B). Next, the target range of base editors was restricted by the PAM where the prototypical SpCas9 recognizing target sites with NGG PAM (where N is A, C, G or T). A variant named SpG was identified with an expanded set of NGN PAM. […]
To develop a split adenosine base editor system, the inventors identified two potential split regions based on the crystal structure of ABE8e base editor in complex with guide RNA and target DNA. […] In addition, moderate levels of eYFP signal were detected in both sites. […]

[4] = tested on: EYFP and BFP expression in HEK293T cells; test: Dual PROTAC-based inducible gene cassettes (EYFP and BFP), microscopy; type: cell-based, human; details: GAL4-FKBP12^F36V + VHL-VPR driving EYFP; TetR-BRD9BD + CRBN-VPR driving BFP; 1 μM, FIG. 2B
Protocol: as §3
The inventors next tested the feasibility of dual PROTAC-based inducible gene cassettes (FIG. 15). In the first cassette, GAL4 was fused with FKBP12^F36V, and VHL was ligated with VPR to drive EYFP expression in response to dTAG^V-1. In the second cassette, TetR was fused with BRD9BD, and CRBN was connected with VPR to drive blue fluorescence protein (BFP) expression in the presence of dBRD9. […] As biological computation relies on the protein or DNA to execute Boolean logic gate operation in living organisms for cell discrimination and disease diagnosis (3, 11, 42), the inventors next explored the possibility of PROTAC-CID enabled logic gate biological computation. By placing EYFP under control of the TRE (Tetracycline response element) and pUAS-1 promoter, the inventors observed strong EYFP expression by using one or two PROTACs, achieving clear logic OR gate responses (FIGS. 2C and 16B). To develop a more sophisticated logic AND gate, the inventors took advantage of two orthogonal site-specific DNA recombinases (Cre and Dre) for biological computation (43). […] In this gene circuit, only in the presence of both dTAG-13 and dBRD9 inducers, Dre and Cre can be expressed to remove their respective “STOP” signals, resulting in the eventual GFP expression as a clear logic AND readout (FIGS. 2D and 16C).

[5] = tested on: Cre-mediated GFP expression in HEK293T cells; test: Inducible Cre site-specific DNA recombination, LoxP-STOP-LoxP-GFP reporter; type: cell-based, human; details: 100 nM dTAG-13 or 1 μM dBRD9, 2 days, FIGS. 3A and 17
Protocol: as §1
Transfection and microscopy. […]

[6] = target: wild-type FKBP12 (Homo sapiens, UniProt P62942); details: refs (32, 36); cited from earlier work
[7] = target: GAL4-FKBP12 (UniProt P04386); test: cell-based or functional assay
[8] = target: PYL-VPR (UniProt Q8VZS8); test: cell-based or functional assay
[9] = target: BRD4^BD2-VPR (human); test: cell-based or functional assay
[10] = target: TRIM24^BD-VPR (human); test: cell-based or functional assay
[11] = Table 4 nonlinear regression, Prism 9 [Agonist] vs. response variable slope (four parameters), no unit in table (the source gives nM), read-out: EC50 (best-fit value)
[12] = dose-response, read-out: EC50 for gene activation

Chain of PYL-VPR (Q8VZS8 33-209): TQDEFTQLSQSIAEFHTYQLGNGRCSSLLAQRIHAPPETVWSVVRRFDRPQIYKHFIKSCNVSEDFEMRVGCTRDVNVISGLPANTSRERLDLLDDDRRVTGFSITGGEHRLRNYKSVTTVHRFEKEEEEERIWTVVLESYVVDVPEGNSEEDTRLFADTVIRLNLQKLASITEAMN
Chain of wild-type FKBP12 (P62942 whole entry, species assumed, the tested form may be a part): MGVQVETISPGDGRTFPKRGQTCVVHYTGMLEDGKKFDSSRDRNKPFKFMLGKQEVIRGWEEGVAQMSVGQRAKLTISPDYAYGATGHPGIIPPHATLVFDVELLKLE

For CO[C@H]1C[C@@H]2CC[C@@H](C)[C@@](O)(O2)C(=O)C(=O)N2CCCC[C@H]2C(=O)O[C@H]([C@H](C)C[C@@H]2CC[C@@H](O)[C@H](OC)C2)CC(=O)[C@H](C)/C=C(\C)[C@@H](O)[C@@H](OC)C(=O)[C@H](C)C[C@H](C)/C=C/C=C/C=C/1C [Rapamycin], the EC50 [1, 11] was 6.32 nM, the EC50 [1, 12] was 6 nM and the “Bottom (best-fit value)” value [2] was 6.692. The “Span (best-fit value)” value [2] was 483.9, the “Top (best-fit value)” value [2] was 490.6 and the “Hillslope (best-fit value)” value ([2]; Table 4 nonlinear regression) was 1.871. For the same molecule, the “logEC50 (best-fit value)” value ([2]; Table 4 nonlinear regression) was 0.8008, the “rapamycin-based gene activation (EYFP)” value ([2]; using FRB and FKBP12, FIG. 1B) was 355 fold and the EC50 [3] was 1.8 nM.

For COc1cc(-c2cn(C)c(=O)c3cnccc23)cc(OC)c1CN(C)CC(=O)NCCOCCOCCNc1cccc2c1C(=O)N(C1CCC(=O)NC1=O)C2=O (stereo not shown) [dBRD9], the “EYFP / BFP expression from dual inducible cassettes” value [4] was “expression only in the presence of its corresponding inducer” and the “GFP signal, two-layer genetic circuit driving Cre” value [5] was “strong GFP signal”.

For CC[C@H](C(=O)N1CCCC[C@H]1C(=O)O[C@H](CCc1ccc(OC)c(OC)c1)c1ccccc1OCC(=O)NCCCCCCC(=O)N[C@H](C(=O)N1C[C@H](O)C[C@H]1C(=O)N[C@@H](C)c1ccc(-c2scnc2C)cc1)C(C)(C)C)c1cc(OC)c(OC)c(OC)c1 [dTAG^V-1], the “Bottom (best-fit value)” value [2] was 0.9420, the “Span (best-fit value)” value [2] was 55.73 and the “Top (best-fit value)” value [2] was 56.67. The “Hillslope (best-fit value)” value ([2]; Table 4 nonlinear regression) was 1.937, the “logEC50 (best-fit value)” value ([2]; Table 4 nonlinear regression) was 2.358 and the EC50 [2, 11] was 228 nM. The EC50 [2, 12] was 228 nM, the “EYFP / BFP expression from dual inducible cassettes” value [4] was “expression only in the presence of its corresponding inducer” and the “degradation of wild-type FKBP12” value [6] was “do not degrade wild-type FKBP12”.

For FRB-VPR (from UniProt P42345 2021-2113), the EC50 of the inducer Rapamycin for EYFP gene activation (dose-response, FIG. 13A) [7] was 6.32 nM and the fold EYFP gene activation with rapamycin [7] was 355 fold.

“GAL4-ABI (from UniProt P04386 1-147; P49597 126-423)” gave an EC50 of the inducer ABA for EYFP gene activation (dose-response, FIG. 13A) [8] of 763 nM.

In the case of GAL4-VHL fusion protein, the EC50 of the inducer MZ1 for EYFP gene activation (dose-response, FIG. 13A) [9] is reported as 32.4 nM and the EC50 of the inducer dTRIM24 for EYFP gene activation (dose-response, FIG. 13A) [10] is reported as 6.35 µM.
